Here are results for six molecules from patent US20190282673A1, “STAPHTAME ACTIVITY ON BIOFILMS” (priority 2016, published 2019).

Read-outs that look alike come from different tables or passages of the source.

One assay relates to S. aureus. Nature of the assay: MIC and checkerboard synergy (broth microdilution) on planktonic cells. As to conditions: for MIC: Staphylococcus aureus, read-out: MIC (drug alone). It counts as cell-based, Staphylococcus aureus. The procedure:
MIC was determined using a modified Clinical and Laboratory Standards Institute (CLSI) broth microdilution procedure described earlier in Vipra, et al. (2012) “Antistaphylococcal activity of bacteriophage derived chimeric protein P128” BMC Microbiol. 12:41-50; and Clinical and Laboratory Standards Institute (2012) “Methods for Dilution Antimicrobial Susceptibility Tests for Bacteria That Grow Aerobically; Approved Standard” CLSI document M07-A9.9 ed. Wayne, Pa. USA. In order to determine effects of combinations of P128 with antibiotics, combinations of various dilutions of P128 and a second drug were tested for growth inhibition using a microdilution checkerboard technique. See Lu, et al. (2013) “In vitro activity of sodium new houttuyfonate alone and in combination with oxacillin or netilmicin against methicillin-resistant Staphylococcus aureus” PLoS One 8:e68053. Briefly, S. aureus culture at a final cell number of 5×10^5 CFU/mL was added to wells of 96-well microtiter plates (precoated with 0.5% BSA), containing two-fold dilutions of P128 and the second drug in cation adjusted Mueller Hinton Broth (CAMHB). The plates were incubated at 37° C. for 24 h and the individual MICs and the combination MICs were read. The fractional inhibitory concentration index (FICI) was determined using the following equation: FICI=(MIC of drug A in the combination/MIC of drug A alone)+(MIC of drug B in the combination/MIC of drug B alone). The combination was considered to be synergistic when the FICI was ≤0.5; additive when FICI was 0.5-1.0; indifferent when FICI was 1-4 and antagonistic when FICI≥4. The experiments were performed in triplicate and repeated twice.
In order to find out whether P128 can act in a synergistic manner with commonly used antibiotics, MIC based growth inhibition assays were performed. MIC based synergy was studied by checkerboard method by determining the FIC index using the method of Lu, et at (2013) “In vitro activity of sodium new houttuyfonate alone and in combination with oxacillin or netilmicin against methicillin-resistant Staphylococcus aureus” PLoS One 8:e68053. […] Similarly.
(§1) Bacterial cultures at a final cell number of 5×10^5 CFU/mL was added to wells of 96-well microtiter plates (precoated with 0.5% BSA), containing two-fold dilutions of P128 and the second drug in cation adjusted Mueller Hinton Broth (CAMHB). The plates were incubated at 37° C. for 24 h and the individual MICs and the combination MICs were read. The fractional inhibitory concentration index (FICI) was determined using the following equation: FICI=(MIC of drug A in the combination/MIC of drug A alone)+(MIC of drug B in the combination/MIC of drug B alone). The combination was considered to be synergistic when the FICI was ≤0.5; additive when FICI was 0.5-1.0; indifferent when FICI was 1-4 and antagonistic when FICI≥4.
(Broth dilution looks for growth in wells or tubes with falling amounts of substance.)

A further assay has as its system S. aureus biofilms. The assay is described as follows: MBIC and checkerboard synergy on preformed biofilm (MTT assay). Type of assay: cell-based, Staphylococcus aureus. As to the method: […] LB supplemented with 50 μg/mL CaCl2 was used for daptomycin treatment wells. The contents of the well was aspirated out and discarded. The biofilm adhered to the wells was quantified by MTT assay as described above. The MBIC was defined as the minimum concentration of P128 or the drug showing no colour development. […] In each experiment, in addition to the combination MBIC, the MBIC of each drug was also determined individually. The fractional MBIC concentrations were determined by MTT dye method as described above. The FICI and synergy was also calculated in a similar manner.
The ability of P128 to inhibit growth of S. aureus in a preformed biofilm was measured by determining minimum biofilm inhibition concentration (MBIC), defined as minimum concentration showing growth inhibition in a MTT based assay. […] 11:226.
The assay was optimized using the standard S. aureus strain ATCC 29213. An overnight-grown culture of the strain was diluted 1:40 in LB broth 200 μL of diluted culture was aliquoted into microtiter plate wells. Microplates were placed in a shaker-incubator set to 37° C., and 100 rpm for 24 h followed by 48 h incubation under static conditions at 37° C. The contents of one set of four wells were aspirated and discarded. Wells were washed twice with 1×PBS and the presence of biofilm in the wells at the end of this 72-hour period was determined by metabolic dye-reduction assay method using MTT (3-(4, 5-dimethylthiazol-5-diphenyltetrazolium bromide; Himedia). In this assay, live cells reduce the dye leading to color formation which can be read at 570 nm, and the intensity of color can be correlated to number of live cells. 100 μL of PBS was added to the wells along with 10 μL of MTT solution. The plate was incubated for 2 h in the dark. After this, 110 μL of solvent solution solubilizing agent was added and the plate was incubated for 15 minutes at ambient temperature with gentle agitation. The absorbance was read at 570 nm in a microplate reader. Another set of four wells was processed for harvesting the biofilm and determination of CFUs present by plating on solid media. For biofilm inhibitory studies, the wells were washed twice with 1×PBS and challenged with various concentrations of P128 or other antibiotic drugs and incubated for 24 h at 37° C. The contents of the well was aspirated out and discarded. The biofilm adhered to the wells was quantified by MTT assay as described above. The MBIC was defined as the minimum concentration of P128 or the drug showing no colour development. […] In each experiment, in addition to the combination MBIC, the MBIC of each drug was also determined individually. The fractional MBIC concentrations were determined by MTT dye method as described above. The FICI and synergy was also calculated in a similar manner.
In order to determine whether P128 could synergize with known anti-Staphylococcus drugs to inhibit S. aureus in biofilms. […] The assays were performed in a 96 well checkerboard format using various concentrations of P128 and one of the antibiotics.
For orientation: Formazan colour is commonly taken as a measure of viable cells.

Another assay relates to S. epidermidis. The assay is described as follows: MIC and checkerboard synergy (broth microdilution) on planktonic cells. As to conditions: for MIC: Staphylococcus epidermidis. Type of assay: cell-based, Staphylococcus epidermidis. As to the method: as §1
S. epidermidis culture at a final cell number of 5×10^5 CFU/mL was added to wells of 96-well microtiter plates (precoated with 0.5% BSA), containing two-fold dilutions of P128 and either Daptomycin or Oxacillin in cation adjusted Mueller Hinton Broth (CAMHB). CAMHB was supplemented with 50 µg/mL Ca^++ for daptomycin assay. The plates were incubated at 37° C. for 24 h and the individual MICs and the combination MICs were read. The fractional inhibitory concentration index (FICI) was determined using the following equation: FICI=(MIC of drug A in the combination/MIC of drug A alone)+(MIC of drug B in the combination/MIC of drug B alone). The combination was considered to be synergistic when the FICI was ≤0.5; additive when FICI was between 0.5-1.0; indifferent when FICI was between 1-4 and antagonistic when FICI was ≥4. The experiments were performed in triplicate and repeated twice.

The subject of another assay is S. aureus BK1 biofilms. The assay is described as follows: Scanning electron microscopy of treated biofilms in microtitre plates. Type of assay: cell-based, Staphylococcus aureus. Particulars: Gentamycin 50 μg/mL; P128 12.5 μg/mL (lowest concentration tested). As to the method:
MRSA strain BK1 or MW2 was used for studying biofilm eradication activity of P128 by SEM. For this, biofilms formed in microtitre plates or on the surface of catheters were treated with increasing concentrations of P128 or antibiotics and subjected to SEM. S. aureus BK1 or MW2 was revived on blood agar plates and the culture was grown overnight in TSB supplemented with 20% glucose. The overnight-grown culture was diluted 1:50 in TSB with 2% glucose to achieve OD600=˜0.1. 200 μL of the diluted culture was aliquoted into each well of the 96 well plate and incubated at 37° C. under static conditions for 18 h. After incubation the contents were aspirated, washed twice with 200 μL of PBS, and 100 μL of media+100 μL of drug were added to each well and incubated again at 37° C. for 18 h. The contents were aspirated, washed with 200 μL of PBS and allowed to dry at 37° C. for 15 min. The individual wells were cut out and biofilms visualized by SEM.

[1] abbreviates: Table 4, S. aureus ATCC 29213 preformed biofilm, 6 h.
[2] abbreviates: Table 4, S. aureus ATCC 29213 preformed biofilm, 24 h.
The mark [3] stands for this setting: Table 4, S. aureus B9241 preformed biofilm, 6 h.
[4] abbreviates: Table 4, S. aureus B9241 preformed biofilm, 24 h.
Where [5] appears, read: Table 4, S. aureus BK1 preformed biofilm, 6 h.
The mark [6] stands for this setting: Table 4, S. aureus BK1 preformed biofilm, 24 h.

On to `CC[C@H]1OC(=O)[C@H](C)[C@@H](O[C@H]2C[C@@](C)(OC)[C@@H](O)[C@H](C)O2)[C@H](C)[C@@H](O[C@@H]2O[C@H](C)C[C@H](N(C)C)[C@H]2O)[C@](C)(O)C[C@@H](C)CN(C)[C@H](C)[C@@H](O)[C@]1(C)O` [Azithromycin, azithromycin], for which, in the assay with S. aureus (24 h, S. aureus BK18), the MIC is 2 µg/mL.

With `Cc1nnc(SCC2=C(C(=O)O)N3C(=O)[C@@H](NC(=O)Cn4cnnn4)[C@H]3SC2)s1` [Cephazolin, cephazolin], the “MIC (drug alone)” value is above 10 µg/mL in the assay with S. aureus (S. aureus COL (MRSA)), 5 µg/mL in the assay with S. aureus (S. aureus MW2 (MRSA)) and above 10 µg/mL in the assay with S. aureus (S. aureus USA 300 (MRSA)).

In the case of `O=C(O)c1cn(C2CC2)c2cc(N3CCNCC3)c(F)cc2c1=O` [Ciprofloxacin, ciprofloxacin, reference compound], the “MBIC (individual)” value in the assay on S. aureus biofilms (setting [1]) is above 250 µg/mL; in the assay with S. aureus biofilms (setting [2]), 6.5 µg/mL; in the assay with S. aureus biofilms (setting [3]) it was above 250 µg/mL; in the assay with S. aureus biofilms (setting [4]) it was 250 µg/mL; in the assay on S. aureus biofilms (setting [5]), above 250 µg/mL; in the assay on S. aureus biofilms (setting [6]) it was above 250 µg/mL.

For the molecule `Cc1onc(-c2ccccc2)c1C(=O)N[C@@H]1C(=O)N2[C@@H]1SC(C)(C)[C@@H]2C(=O)O` [Oxacillin, oxacillin], the “MIC (drug alone)” value in the assay with S. epidermidis (S. epidermidis B9470) and in the assay on S. epidermidis (S. epidermidis B9471) was 16 µg/mL in each case. Moreover, the MIC is 8 µg/mL with S. epidermidis (S. epidermidis B9467, read-out: MIC (drug alone)); 0.12 µg/mL with S. epidermidis (S. epidermidis B9468, read-out: MIC (drug alone)); above 8 µg/mL in the assay on S. epidermidis (S. epidermidis B9470, read-out: MIC (drug alone)); above 8 µg/mL in the assay on S. epidermidis (S. epidermidis B9471, read-out: MIC (drug alone)); 16 µg/mL in the assay with S. epidermidis (S. epidermidis B9472, read-out: MIC (drug alone)); 16 µg/mL in the assay on S. epidermidis (S. epidermidis B9473, read-out: MIC (drug alone)). Also, the MIC is 0.12 µg/mL in the assay with S. epidermidis (S. epidermidis, read-out: MIC on resistant strains); 16 µg/mL in the assay on S. epidermidis (S. epidermidis, read-out: MIC on the sensitive strains); above 16 µg/mL in the assay on S. aureus (MRSA / USA300, 24 h, S. aureus USA 300 (MRSA)); above 16 µg/mL in the assay with S. aureus (MRSA, 24 h, MRSA strain BK22); above 16 µg/mL in the assay on S. aureus (MRSA, 24 h, S. aureus COL (MRSA)); above 16 µg/mL with S. aureus (MRSA, 24 h, S. aureus MW2 (MRSA)).

On to `CN(C)c1cc(NC(=O)CNC(C)(C)C)c(O)c2c1C[C@H]1C[C@H]3[C@H](N(C)C)C(O)=C(C(N)=O)C(=O)[C@@]3(O)C(O)=C1C2=O` [Tigecycline], for which the MIC in the assay on S. aureus (24 h, S. aureus BK18) is 4 µg/mL.

On to gentamycin [reference compound], for which the “MIC (drug alone)” value in the assay with S. aureus (S. aureus ATCC 29213 (MSSA)) turned out to be 0.4 µg/mL; in the assay on S. aureus (S. aureus B9241 (gentamycin and ciprofloxacin resistant)) it was 62 µg/mL; in the assay on S. aureus (S. aureus BK1 (MRSA, ciprofloxacin resistant)), 0.4 µg/mL. Further, the “MIC on resistant strains” value in the assay with S. aureus (planktonic S. aureus, strains resistant to the drug) was found to be 62 µg/mL. Besides, the “MIC on sensitive strains” value with S. aureus (planktonic S. aureus, strains sensitive to the drug) is 0.4 µg/mL. For the same molecule, the “MBIC (individual)” value in the assay with S. aureus biofilms (setting [1]), in the assay on S. aureus biofilms (setting [2]), in the assay on S. aureus biofilms (setting [3]), in the assay with S. aureus biofilms (setting [4]), in the assay with S. aureus biofilms (setting [5]) and in the assay with S. aureus biofilms (setting [6]) was above 1000 µg/mL each time. In the assay with S. aureus biofilms (gentamycin sensitive strains ATCC29213 and BK1), the “Reduction in MBIC in combination with P128” value is reported as above 250 fold. Moreover, the “Effect on biofilm by SEM” value in the assay with S. aureus BK1 biofilms is “did not have any appreciable effect”.

As usually defined, the MIC is the lowest concentration that inhibits growth of the organism.
